Measurements reported in US20250115571A1, “OXOPIPERAZINE DERIVATIVES” (Inthera Bioscience AG, priority 2017, published 2025).

Assays:
Assay in all cases: 5-day cell proliferation assay (CTG)
Format in all cases: cell-based
DU145 = settings: Homo sapiens, DU-145, 120 h, DU145, Prostate
Experimental: (§1) For screening using a proliferation assay, the cells used were cultured at 37° C. with 5% CO2, except for those being cultured with L-15 medium (37° C. and 100% air, TABLE 7). Compound stock solutions (10 mM) were made in sterile water, aliquoted and stored at room temperature. Cisplatin was used as reference Control. Plastic consumables, culture media and supplements were purchased from well-known suppliers (TABLE 8).
(§2) Cell seeding (day −1). When necessary, cells were trypsinized using standard methods (see e.g. example 01). Cells were collected and resuspended in 5-6 mL of appropriate culture medium, counted and diluted to the needed density. Fifty-four μl (microliter) cells were seeded per well in a 384-well plate. Extra four wells per cell line were seeded on an additional plate for Day 0 reading (baseline cell density). Cells were incubated at 37° C. overnight.
(§3) Compound treatment and Day 0 reading (day 0). Tenfold final concentration of test compounds and Cisplatin were prepared in cell culture media (work dilutions). Six μl of work dilution solutions were dispensed into the corresponding wells in 384-well plates to bring the total volume up to 60 μl. Conditions were tested in triplicate. The plates were then incubated at 37° C. for five days. For the day 0 reading, 30 μl of CTG and 6 μl cell culture medium were added to the day 0 plates, contents mixed for 2 min on a plate shaker, and the plates incubated for 10 min at room temperature in the dark. Luminescence was recorded on an EnVision Multi Label Reader (2104-0010A, PerkinElmer, USA).
(§4) Endpoint CTG reading (day 5). The amounts of cells in the plates was determined by endpoint CTG-test. Thirty μl of CTG were added to the 60 μl of cell culture per well, contents mixed for 2 min on a plate shaker, and the plates incubated for 10 min at room temperature in the dark. Luminescence was recorded on an EnVision Multi Label Reader.
(§5) Data analysis. Fifty percent growth inhibition concentrations (GI50) were calculated based on percentage of control data (untreated cells) from each cell line (TABLE 5 (this example) and TABLE 6). Curves were fitted using a nonlinear regression model with a sigmoidal dose response. Examples of obtained curves are depicted in FIG. 2A-2F.

Daudi = settings: Homo sapiens, 120 h, Lymphoma
Experimental: as §1, §2, §3, §4, §5

HT-3 = settings: Homo sapiens, 120 h, HT-3, Cervix
Experimental: as §1, §2, §3, §4, §5

A549 = settings: Homo sapiens, 120 h, A549, Lung
Experimental: as §1, §2, §3, §4, §5

BT-20 = settings: Homo sapiens, 120 h, BT-20, Breast
Experimental: as §1, §2, §3, §4, §5

H460 = settings: Homo sapiens, NCI-H460, 120 h, H460, Lung
Experimental: as §1, §2, §3, §4, §5

786-O = settings: Homo sapiens, 786-0, 120 h, Kidney
Experimental: as §1, §2, §3, §4, §5

Jurkat = settings: Homo sapiens, 120 h, Leukemia
Experimental: as §1, §2, §3, §4, §5

MIA PaCa-2 = settings: Homo sapiens, 120 h, MIA PaCa-2, Pancreas
Experimental: as §1, §2, §3, §4, §5

BT474 = settings: Homo sapiens, BT-474, 120 h, BT474, Breast
Experimental: as §1, §2, §3, §4, §5

H4 = settings: Homo sapiens, 120 h, H4, Brain/Nerves
Experimental: as §1, §2, §3, §4, §5

VCAP = settings: Homo sapiens, 120 h, Prostate
Experimental: as §1, §2, §3, §4, §5

MCF7 = settings: Homo sapiens, 120 h, MCF7, Breast
Experimental: as §1, §2, §3, §4, §5

SiHa = settings: Homo sapiens, 120 h, Cervix
Experimental: as §1, §2, §3, §4, §5

HL-60 = settings: Homo sapiens, 120 h, HL-60, Leukemia
Experimental: as §1, §2, §3, §4, §5

MS751 = settings: Homo sapiens, 120 h, MS751, Cervix
Experimental: as §1, §2, §3, §4, §5

PANC-1 = settings: Homo sapiens, 120 h, PANC-1, Pancreas
Experimental: as §1, §2, §3, §4, §5

AU565 = settings: Homo sapiens, 120 h, AU565, Breast
Experimental: as §1, §2, §3, §4, §5

Caco-2 = settings: Homo sapiens, 120 h, Caco-2, Colorectal
Experimental: as §1, §2, §3, §4, §5

OVCAR-3 = settings: Homo sapiens, 120 h, OVCAR-3, Ovary
Experimental: as §1, §2, §3, §4, §5

KYSE-270 = settings: Homo sapiens, 120 h, KYSE-270, Oesophagus
Experimental: as §1, §2, §3, §4, §5

Malme-3M = settings: Homo sapiens, 120 h, Skin, highest tested concentration 10 μM
Experimental: as §1, §2, §3, §4, §5

KARPAS-299 = settings: Homo sapiens, 120 h, KARPAS-299, Lymphoma
Experimental: as §1, §2, §3, §4, §5

IM95m = settings: Homo sapiens, 120 h, Stomach/Gastric
Experimental: as §1, §2, §3, §4, §5

Hep G2 = settings: Homo sapiens, HepG2, 120 h, Hep G2, Liver
Experimental: as §1, §2, §3, §4, §5

CaSki = settings: Homo sapiens, Ca-Ski, 120 h, Cervix
Experimental: as §1, §2, §3, §4, §5

MKN-45 = settings: Homo sapiens, 120 h, MKN-45, Stomach/Gastric
Experimental: as §1, §2, §3, §4, §5

HCC4006 = settings: Homo sapiens, 120 h, HCC4006, Lung
Experimental: as §1, §2, §3, §4, §5

22RV1 = settings: Homo sapiens, 120 h, 22RV1, Prostate
Experimental: as §1, §2, §3, §4, §5

CC(C)C[C@@H]1NCCN([C@@H](CC(C)C)C(=O)N2CCC3(C[C@@H]2C)OCC(CN2CCCC2)CO3)C1=O (stereo partly drawn) [Compound 258, (3S)-1-[(2S)-4-methyl-1-oxo-1-[(3s,6s,8S)-8-methyl-3-(pyrrolidin-1-ylmethyl)-1,5-dioxa-9-azaspiro[5.5]undec-an-9-yl]pentan-2-yl]-3-(2-methylpropyl)piper-azin-2-one (^≠), isomer Z]
GI50 (DU145): 7 nM | GI50 (Daudi): 80 nM | GI50 (HT-3): 330 nM | GI50 (A549): 10 nM | GI50 (BT-20): 15 nM | GI50 (H460): 11 nM | GI50 (786-O): 28 nM | GI50 (Jurkat): 18 nM | GI50 (MIA PaCa-2): 11 nM | GI50 (BT474): 72 nM | GI50 (H4): 11 nM | GI50 (VCAP): 128 nM | GI50 (MCF7): 55 nM | GI50 (SiHa): 52 nM | GI50 (HL-60): 5 nM | GI50 (MS751): 51 nM | GI50 (PANC-1): 22 nM | GI50 (AU565): 3 nM | GI50 (Caco-2): 10 nM | GI50 (OVCAR-3): 44 nM | GI50 (KYSE-270): 44 nM | GI50 (Malme-3M): > 10000 nM | GI50 (KARPAS-299): 5 nM | GI50 (IM95m): 4 nM | GI50 (Hep G2): 6 nM | GI50 (CaSki): 35 nM | GI50 (MKN-45): 4 nM | GI50 (HCC4006): 8 nM | GI50 (22RV1): 9 nM
